Data: US7332504B2, “Heterocyclic substituted aminoazacycles useful as central nervous system agents” (Abbott Laboratories, priority 1999, dated 2008)
Structures can show the parent of a compound that is named as a salt.

How the values were obtained:
[1] = test system: mouse hot plate paradigm; assay: Mouse hot plate paradigm (analgesia); format: in vivo; details: ip, 0.5 h, mice, intraperitoneal, dosed 30 minutes prior to testing, hot plate 55° C., increase in tenth jump latency relative to control, read-out: minimally effective dose (MED)
Experimental: An in vivo protocol was utilized to determine the effectiveness of nicotinic acetylcholine receptor ligands as analgesic agents in the mouse hot plate paradigm.
Separate groups of mice, (n=8/group) were utilized for each dose group. All drugs were administered by the intraperitoneal route of administration. Test drugs were dissolved in water to make a 6.2 mM stock solution. Animals were dosed with this solution (10 mL/kg body weight) for a 62 micromol/kg dose. Lower doses were administered similarly, following serial dilution of the stock solution in half-log increments. Animals were dosed 30 minutes prior to testing in the hot plate. The hot-plate utilized was an automated analgesia monitor (Model #AHP16AN, Omnitech Electronics, Inc. of Columbus, Ohio). The temperature of the hot plate was maintained at 55° C. and a cut-off time of 180 seconds was utilized. Latency until the tenth jump was recoreded as the dependent measure. An increase in the tenth jump latency relative to the control was considered an effect.

[2] = biological target: T1, neuronal nicotinic acetylcholine receptors (Rattus norvegicus, UniProt P09483+P12390); assay: Binding of [3H]-cytisine to neuronal nicotinic acetylcholine receptors, crude synaptic membranes from whole rat brain
T1 construct: crude synaptic membrane preparations from whole rat brain; from tissue; host or cells: whole rat brain, crude synaptic membranes
Experimental: The In Vitro protocols for determination of nicotinic acetylcholine channel receptor binding potencies of ligands were determined as follows.
Binding of [^3H]-cytisine ([^3 H]-CYT) to neuronal nicotinic acetylcholine receptors was accomplished using crude synaptic membrane preparations from whole rat brain (Pabreza et al., Molecular Pharmacol., 1990, 39:9). Washed membranes were stored at —80° C. prior to use. Frozen aliquots were slowly thawed and resuspended in 20 volumes of buffer (containing: 120 mM NaCl, 5 mM KCl, 2 mM MgCl2, 2 mM CaCl2 and 50 mM Tris-Cl, pH 7.4 @4° C.). After centrifuging at 20,000×g for 15 minutes, the pellets were resuspended in 30 volumes of buffer.
The test compounds were dissolved in water to make 10 mM stock solutions. Each solution was then diluted (1:100) with buffer (as above) and further taken through seven serial log dilutions of produce test solution from 10^−5 to 10^−11 M.
Homogenate (containing 125-150 μg protein) was added to triplicate tubes containing the range of concentrations of test compound described above and [^3H]-CYT (1.25 nM) in a final volume of 500 μL. Samples were incubated for 60 minutes at 4° C., then rapidly filtered through Whatman GF/B filters presoaked in 0.5% polyethyleneimine using 3×4 mL of ice-cold buffer. The filter are counted in 4 mL of Ecolume® (ICN). Nonspecific binding was determined in the presence of 10 μM (−)-nicotine and values were expressed as a percentage of total binding. IC50 values were determined with the RS-1 (BBN) nonlinear least squares curve-fitting program and IC50 values were converted to Ki values using the Cheng and Prusoff correction ([…].

T1 sequence (P09483 31-630): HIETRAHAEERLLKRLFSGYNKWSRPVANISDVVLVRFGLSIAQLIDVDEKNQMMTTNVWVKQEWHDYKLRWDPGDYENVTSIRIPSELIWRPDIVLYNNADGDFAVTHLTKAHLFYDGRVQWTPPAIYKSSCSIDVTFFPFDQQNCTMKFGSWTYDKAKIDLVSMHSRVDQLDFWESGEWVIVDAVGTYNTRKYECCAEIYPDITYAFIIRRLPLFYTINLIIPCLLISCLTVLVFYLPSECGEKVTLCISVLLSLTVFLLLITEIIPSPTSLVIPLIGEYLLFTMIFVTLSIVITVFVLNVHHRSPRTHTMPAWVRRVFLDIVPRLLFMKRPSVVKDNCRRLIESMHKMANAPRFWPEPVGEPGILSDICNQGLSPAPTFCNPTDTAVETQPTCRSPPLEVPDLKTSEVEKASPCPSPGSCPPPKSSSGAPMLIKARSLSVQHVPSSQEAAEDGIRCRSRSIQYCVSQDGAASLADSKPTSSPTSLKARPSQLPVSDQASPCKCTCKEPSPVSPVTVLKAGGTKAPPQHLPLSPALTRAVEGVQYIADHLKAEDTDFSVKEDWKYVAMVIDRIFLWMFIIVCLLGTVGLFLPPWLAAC
T1 sequence (P12390 25-500): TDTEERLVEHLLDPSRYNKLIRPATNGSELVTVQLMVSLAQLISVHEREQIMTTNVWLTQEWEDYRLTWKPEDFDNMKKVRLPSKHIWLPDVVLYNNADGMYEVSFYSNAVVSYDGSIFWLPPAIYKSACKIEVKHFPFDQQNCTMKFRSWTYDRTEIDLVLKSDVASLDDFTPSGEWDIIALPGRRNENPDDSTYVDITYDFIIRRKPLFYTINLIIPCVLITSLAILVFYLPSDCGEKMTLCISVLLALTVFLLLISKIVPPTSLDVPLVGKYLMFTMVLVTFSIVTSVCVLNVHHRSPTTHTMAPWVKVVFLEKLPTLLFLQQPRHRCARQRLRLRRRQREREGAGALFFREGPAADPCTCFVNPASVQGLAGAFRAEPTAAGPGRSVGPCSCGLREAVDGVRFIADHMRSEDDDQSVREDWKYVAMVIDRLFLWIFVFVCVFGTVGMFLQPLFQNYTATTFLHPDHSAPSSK

SMILES	melting point	minimal effective dose [1] [µmol/kg]	Ki [2] [nM]
CN(C)[C@H]1CCN(c2ccc(Cl)nc2)C1 (as salt: benzenesulfonate) [Example 3, N-[(3S)-1-(6-chloro-3-pyridinyl)pyrrolidinyl]-N,N-dimethylamine 4-methylbenzenesulfonate]	190 to 191.5 °C		
N[C@@H]1CCN(c2ccc(Cl)nc2)C1 (as salt: benzenesulfonate) [Example 4, (3R)-1-(6-chloro-3-pyridinyl)pyrrolidinylamine 4-methylbenzenesulfonate]	224.5 to 225.5 °C		
N[C@H]1CCCN(c2cccnc2)C1 (as salt: benzenesulfonate) [Example 41, (3S)-1-(3-pyridinyl)piperidinylamine bis(4-methylbenzenesulfonate)]	64 to 66 °C		
N[C@H]1CCCN(c2ccc(Cl)nc2)C1 (as salt: benzenesulfonate) [Example 45, (3S)-1-(6-chloro-3-pyridinyl)piperidinylamine bis(4-methylbenzenesulfonate)]	182 to 184 °C		
N[C@H]1CCN(c2cncc([N+](=O)[O-])c2)C1 (as salt: fumarate) [Example 29, (3S)-1-(5-nitro-3-pyridinyl)pyrrolidinylamine fumarate]	213 to 214 °C		
CN[C@H]1CCN(c2cncc([N+](=O)[O-])c2)C1 (as salt: fumarate) [Example 30, N-methyl-N-[(3S)-1-(5-nitro-3-pyridinyl)pyrrolidinyl]amine fumarate]	183 to 185 °C		
N[C@@H]1CCN(c2cncc([N+](=O)[O-])c2)C1 (as salt: fumarate) [Example 31, (3R)-1-(5-nitro-3-pyridinyl)pyrrolidinylamine fumarate]	212 to 213 °C		
CN[C@@H]1CCN(c2cncc([N+](=O)[O-])c2)C1 (as salt: fumarate) [Example 32, N-methyl-N-[(3R)-1-(5-nitro-3-pyridinyl)pyrrolidinyl]amine fumarate]	184 to 185 °C		
CN[C@H]1CCN(c2ccc(Cl)nc2)C1 (as salt: hydrochloride) [Example 1, N-[(3S)-1-(6-chloro-3-pyridinyl)pyrrolidinyl]-N-methylamine hydrochloride]	> 250 °C		
N[C@H]1CCN(c2ccc(Cl)nc2)C1 (as salt: hydrochloride) [Example 2, (3S)-1-(6-chloro-3-pyridinyl)pyrrolidinylamine dihydrochloride]	> 250 °C		
CN[C@@H]1CCN(c2ccc(Cl)nc2)C1 (as salt: hydrochloride) [Example 5, N-[(3R)-1-(6-chloro-3-pyridinyl)pyrrolidinyl]-N-methylamine hydrochloride]	265 °C (dec.)		
N[C@@H]1CCN(c2cncc(C(F)(F)F)c2)C1 (as salt: hydrochloride) [Example 11, (3R)-1-[5-(trifluoromethyl)-3-pyridinyl]pyrrolidinylamine dihydrochloride]	234 to 235 °C		
CN[C@@H]1CCN(c2cncc(C(F)(F)F)c2)C1 (as salt: hydrochloride) [Example 12, N-methyl-N-{(3R)-1-[5-(trifluoromethyl)-3-pyridinyl]pyrrolidinyl}amine hydrochloride]	265 °C (dec.)		
N[C@H]1CCN(c2cncc(C(F)(F)F)c2)C1 (as salt: hydrochloride) [Example 13, (3S)-1-[5-(trifluoromethyl)-3-pyridinyl]pyrrolidinylamine dihydrochloride]	235 to 236 °C		
CN[C@H]1CCN(c2cncc(C(F)(F)F)c2)C1 (as salt: hydrochloride) [Example 14, N-methyl-N-{(3S)-1-[5-(trifluoromethyl)-3-pyridinyl]pyrrolidinyl}amine hydrochloride]	240 to 243 °C (dec.)		
CN[C@H]1CCCN(c2ccc(Cl)nc2)C1 (as salt: hydrochloride) [Example 46, N-[(3S)-1-(6-chloro-3-pyridinyl)piperidin-3-yl]-N-methylamine dihydrochloride]	120 to 122 °C		
CN[C@H]1CCN(c2cnc(Cl)c(OC)c2)C1 [Example 24, N-[(3S)-1-(6-chloro-5-methoxy-3-pyridinyl)pyrrolidinyl]-N-methylamine dihydrochloride]		62	4.1
Cc1cc(N2CC[C@H](N)C2)cnc1F [Example 25, (3S)-1-(6-fluoro-5-methyl-3-pyridinyl)pyrrolidinylamine hydrochloride]		6.2	0.34
N[C@H]1CCN(c2cncc([N+](=O)[O-])c2)C1 [Example 29, (3S)-1-(5-nitro-3-pyridinyl)pyrrolidinylamine fumarate]		19	0.7
N[C@@H]1CCN(c2cncc([N+](=O)[O-])c2)C1 [Example 31, (3R)-1-(5-nitro-3-pyridinyl)pyrrolidinylamine fumarate]		6.2	3.5
NC1CCCN(c2ccc(Cl)nc2)C1 (stereo not shown) [Example 38, 1-(6-chloro-3-pyridinyl)-3-piperidinylamine 4-methylbenzenesulfonate]		6.2	0.51
N[C@H]1CCCN(c2cccnc2)C1 [Example 41, (3S)-1-(3-pyridinyl)piperidinylamine bis(4-methylbenzenesulfonate)]		19	0.89
CN[C@H]1CCCN(c2cccnc2)C1 [Example 42, N-methyl-N-[(3S)-1-(3-pyridinyl)piperidin-3-yl]amine bis(4-methylbenzenesulfonate)]		62	83
N[C@@H]1CCCN(c2cccnc2)C1 [Example 43, (3R)-1-(3-pyridinyl)piperidinylamine bis(4-methylbenzenesulfonate)]		0.62	1.1
N[C@H]1CCCN(c2ccc(Cl)nc2)C1 [Example 45, (3S)-1-(6-chloro-3-pyridinyl)piperidinylamine bis(4-methylbenzenesulfonate)]		0.62	0.35
CN[C@H]1CCCN(c2ccc(Cl)nc2)C1 [Example 46, N-[(3S)-1-(6-chloro-3-pyridinyl)piperidin-3-yl]-N-methylamine dihydrochloride]		62	60
N[C@@H]1CCCN(c2ccc(Cl)nc2)C1 [Example 47, (3R)-1-(6-chloro-3-pyridinyl)piperidin-3-ylamine bis(4-methylbenzenesulfonate)]		1.9	0.38
CN[C@@H]1CCCN(c2ccc(Cl)nc2)C1.Cl.Cl [Example 48, N-[(3R)-1-(6-chloro-3-pyridinyl)piperidin-3-yl]-N-methylamine dihydrochloride]	103 to 105 °C		166
CN[C@H]1CCCN(c2cnc(Cl)c(C)c2)C1.Cl [Example 49, N-[(3S)-1-(6-chloro-5-methyl-3-pyridinyl)piperidin-3-yl]-N-methylamine hydrochloride]	75 to 77 °C	62	4.8
